The target in test [1] is T1, Human CD73 (amino acid residues 27-549) (Homo sapiens, UniProt P21589).
T1 construct: Human CD73 (amino acid residues 27-549); His tag (N); made in house; host or cells: E. coli
T1 sequence (P21589 27-549): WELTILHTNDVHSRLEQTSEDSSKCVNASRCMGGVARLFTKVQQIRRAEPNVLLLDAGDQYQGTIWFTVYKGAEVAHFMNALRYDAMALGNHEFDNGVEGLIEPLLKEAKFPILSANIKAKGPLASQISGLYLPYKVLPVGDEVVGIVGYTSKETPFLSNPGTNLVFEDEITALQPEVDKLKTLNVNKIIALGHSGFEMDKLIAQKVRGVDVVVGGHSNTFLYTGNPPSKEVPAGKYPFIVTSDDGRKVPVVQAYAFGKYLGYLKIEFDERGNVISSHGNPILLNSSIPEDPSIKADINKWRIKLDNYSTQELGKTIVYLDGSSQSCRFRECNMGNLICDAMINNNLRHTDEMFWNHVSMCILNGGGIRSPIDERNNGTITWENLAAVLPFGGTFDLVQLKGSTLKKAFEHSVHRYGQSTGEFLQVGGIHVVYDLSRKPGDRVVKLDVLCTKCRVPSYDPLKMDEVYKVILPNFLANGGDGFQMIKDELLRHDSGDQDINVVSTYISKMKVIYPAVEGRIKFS
In words: CD73 enzymatic assay (luciferase-based indirect assay, CellTiter-Glo). The settings on record: 0.4 nM CD73, 150 μM AMP, 1 hour at room temperature. It counts as biochemical. An outline of the steps: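 His-tagged human CD73 (27-549) from E. coli, 0.4 nM, with 150 μM AMP in 50 mM HEPES pH 7.4, 0.01% Tween 20; 1 h at room temperature. AMP remaining read by CellTiter-Glo 2.0 luminescence with 1 μM final ATP after 30 min. IC50 from nonlinear regression of % inhibition.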
Background: In ATP-based viability assays light output follows the ATP content of the culture.

Another test has as its target T2, human CD73 (Homo sapiens, UniProt P21589).
T2 construct: expressed in transfected cells
T2 sequence (P21589 27-549): T1 sequence (P21589 27-549)
In words: Inhibitor activity against CD73 in cell based assay (CD73 expressing CHO-K1 cells). The conditions noted are these: CHO-K1 cells expressing human CD73, 150 μM AMP, 4 hours of incubation; read-out: CHO-K1 CELL VARIANT: CD73 IC50. An outline of the steps:
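Stably transfected CHO-K1 cells expressing human CD73 (1×10^4/well) incubated 4 h with compound (8-point 1:3 titration, top 10 μM final, 0.2% DMSO) and 150 μM AMP. Residual AMP in supernatant measured by CellTiter-Glo luminescence with 1 μM ATP after 30 min at room temperature; IC50 by nonlinear regression of percent inhibition vs high/low controls.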

Our source for the IC50 values is US12509444B2, “Compounds and methods for CD73 modulation and indications therefor” (Plexxikon Inc., priority 2019, dated 2025).

What is called IC50 is the concentration needed to halve the response being measured.

On to `O=C(NC1CCCC(F)(F)C1)O[C@H]1CN(c2cnn(CCO)c(=O)c2Cl)C[C@@H]1F` (stereo partly drawn) [P-0507, (3S,4S)-1-(5-chloro-1-(2-hydroxyethyl)-6-oxo-1,6-dihydropyridazin-4-yl)-4-fluoropyrrolidin-3-yl (3,3-difluorocyclohexyl)carbamate], for which the half-inhibitory concentration (IC50) (in test [1]; at human CD73) was 0.001 to 10 µM in each case.
For `O=C(N[C@@H]1CCC[C@H]1CO)O[C@@H]1CCN(c2cn[nH]c(=O)c2Cl)C1` [P-0508, (R)-1-(5-chloro-6-oxo-1,6-dihydropyridazin-4-yl)pyrrolidin-3-yl ((1R,2R)-2-(hydroxymethyl)cyclopentyl) carbamate], the 50% inhibitory concentration (IC50) (in test [1]; at human CD73) was 0.001 to 10 µM in each case.
Take `O=C(N[C@@H]1CCC[C@H]1C(F)F)O[C@@H]1CCN(c2cn[nH]c(=O)c2Cl)C1` [P-0509, (R)-1-(5-chloro-6-oxo-1,6-dihydropyridazin-4-yl)pyrrolidin-3-yl ((1R,2R)-2-(difluoromethyl)cyclopentyl) carbamate]: the IC50 (in test [1]; at human CD73) was 0.001 to 10 µM throughout.
`CC(F)(F)[C@@H]1CCC[C@H]1NC(=O)O[C@@H]1CCN(c2cn[nH]c(=O)c2Cl)C1` [P-0510, (R)-1-(5-chloro-6-oxo-1,6-dihydropyridazin-4-yl)pyrrolidin-3-yl ((1R,2R)-2-(1,1-difluoroethyl)cyclopentyl) carbamate]: the IC50 (in test [1]; on human CD73) was 0.001 to 10 µM in each case.
`O=C(N[C@H]1CCCC(F)(F)C1)O[C@@H]1CCN(c2cn[nH]c(=O)c2Cl)C1` [P-0511, (R)-1-(5-chloro-6-oxo-1,6-dihydropyridazin-4-yl)pyrrolidin-3-yl ((S)-3,3-difluorocyclohexyl)carbamate]: the IC50 (in test [1]; at human CD73) was 0.001 to 10 µM in each case.
In the case of `O=C(N[C@@H]1CCCC(F)(F)C1)O[C@@H]1CCN(c2cn[nH]c(=O)c2Cl)C1` [P-0512, (R)-1-(5-chloro-6-oxo-1,6-dihydropyridazin-4-yl)pyrrolidin-3-yl ((R)-3,3-difluorocyclohexyl)carbamate], the IC50 (in test [1]; at human CD73) was 0.001 to 10 µM in each case.
For `O=C(N[C@@H]1CCCC(F)(F)C1)O[C@@H]1CCN(c2cnn(CCO)c(=O)c2Cl)C1` [P-0513, (R)-1-(5-chloro-1-(2-hydroxyethyl)-6-oxo-1,6-dihydropyridazin-4-yl)pyrrolidin-3-yl ((R)-3,3-difluorocyclohexyl)carbamate], the IC50 (in test [1]; at human CD73) was 0.001 to 10 µM each time.
Regarding `O=C(N[C@H]1CCCC(F)(F)C1)O[C@@H]1CCN(c2cnn(CCO)c(=O)c2Cl)C1` [P-0514, (R)-1-(5-chloro-1-(2-hydroxyethyl)-6-oxo-1,6-dihydropyridazin-4-yl)pyrrolidin-3-yl ((S)-3,3-difluorocyclohexyl)carbamate], the IC50 (in test [1]; on human CD73) was 0.001 to 10 µM each time.
For the compound `N#CC1(NC(=O)O[C@@H]2CCN(c3cn[nH]c(=O)c3Cl)C2)CCC1` [P-0515, (R)-1-(5-chloro-6-oxo-1,6-dihydropyridazin-4-yl)pyrrolidin-3-yl (1-cyanocyclobutyl)carbamate], the IC50 (in test [1]; on human CD73) was 0.001 to 10 µM throughout.
Consider `O=C(NC1CCC1)O[C@@H]1CCN(c2cn[nH]c(=O)c2Cl)C1` [P-0516, (R)-1-(5-chloro-6-oxo-1,6-dihydropyridazin-4-yl)pyrrolidin-3-yl cyclobutylcarbamate], for which the IC50 (in test [1]; on human CD73) was 0.001 to 10 µM each time.
For `CC1(C)C(NC(=O)O[C@@H]2CCN(c3cn[nH]c(=O)c3Cl)C2)C1(C)C` [P-0517, (R)-1-(5-chloro-6-oxo-1,6-dihydropyridazin-4-yl)pyrrolidin-3-yl (2,2,3,3-tetramethylcyclopropyl) carbamate], the IC50 (in test [1]; on human CD73) was 0.001 to 10 µM each time.
Take `O=C(NC1(C(F)(F)F)CCC1)O[C@@H]1CCN(c2cn[nH]c(=O)c2Cl)C1` [P-0518, (R)-1-(5-chloro-6-oxo-1,6-dihydropyridazin-4-yl)pyrrolidin-3-yl (1-(trifluoromethyl)cyclobutyl) carbamate]: the IC50 (in test [1]; at human CD73) was 0.001 to 10 µM each time.
